Data reported in patent US8148354B2, “Use of 20(S)-protopanaxadiol in manufacture of antidepressants” (priority 2006, dated 2012).
Marks after values point to notes of the source that are not given here.

Experiments:
[1] = system: model rats wearing shackles; experiment: Stress testing of rats wearing shackles (open-field test); format: in vivo; details: shackle model rats, mean ± SD
Source text: (i) Modeling Method: Sixty male SD rats, 8-9 weeks old and weighing 200-250 g, were randomly divided into 6 groups and subjected to gavage once a day as shown in Table 9. On the first day, individually housed rats were fitted with a cylindrical plastic shackle-like device composed of two pieces of red organic glass 0.2 cm-thick and 4 cm in diameter. The device could be adjusted according to the size of the animals and was worn for 21 days.
(ii) Test Indexes: Behavior such as rearing up; grabbing and gnawing; braying; slowness in reactions; action tardiness; narrowing of the eyes with secretion; yellow of fur; small, dry and fewer feces; borrow-reddish fail with scales and weight loss. An open-field test was used to observe the behavior of animals on day 21 (the same method used with the chronic stress rat model).

[2] = system: Reserpine-Induced Akinesia in Mice; experiment: Inhibition of akinesia induced by reserpine; format: in vivo, Kunming mice; details: reserpine 2.5 mg/kg i.p., 10 mice per group
Description: Fifty male Kunming mice, 8-9 weeks old and weighing 18-22 g, were randomly divided by weight into 5 groups, and administered by gavage a single dose of one of the drugs listed in Table 5 for 10 consecutive days. Sixty minutes after the last dose, mice were given a reserpine injection (2.5 mg/kg) delivered i. p. Sixty minutes later, mice were individually placed on the center of a round filter paper 7.5 cm in diameter. After a 30-sec observation, the number of animals that were still on the filter paper was recorded. Fisher's exact test was used for statistical analysis.

[3] = system: 5-HT Re-uptake; experiment: 5-HT re-uptake test ([14C]-5-HT, hypothalamus homogenate); format: biochemical, SD rats
Description: Eight male SD rats were decapitated. The hypothalamuses were rapidly removed, weighed and homogenized in a 9-fold volume of 0.32 mol/L ice-cold sucrose solution, and centrifuged at a rate of 3420 rpm for 10 minutes at 0-4° C. […] Ten tubes were prepared for each group and all tubes were incubated at 37° C. for 5 minutes. […] CO2 chamber for 5 minutes, followed by centrifugation at a rate of 7,480 rpm for 10 minutes. The supernatant of the solution was put into a scintillation vial for counting after adding 10 ml scintillation fluid (scintillation was performed 3 times). The re-uptake of serotonin was calculated by the difference in DMP at 37° C. and 0° C.

[4] = system: mice in the forced swimming test; experiment: Forced swimming test using mice; format: in vivo, Kunming mice; details: mean ± SD
Description: Fifty male Kunming mice, 9-10 weeks old and weighing 22-24 g, were randomly divided by weight into 5 groups and administered by gavage a single dose of one of the drugs listed in Table 6. Sixty minutes later, the mice were placed in individual beakers (2500 ml, 20 cm×14 cm in diameter), which had previously been filled with water (25° C.) up to 10 cm from the bottom. The duration of immobility in the last 4 minutes in the 6-min swimming test was recorded (the term immobility indicates no movement except for respiration). T-test was used for statistical analysis.
Fifty male Kunming mice, 8-9 weeks old and weighing 18-22 g, were randomly divided by weight into 5 groups and subjected to gavage once a day for 10 consecutive days as shown in Table 7. Sixty minutes after the last dose, the mice were individually placed in beakers (2500 ml, 20 cm×14 cm in diameter), which had previously been filled with water (25° C.) up to 10 cm from the bottom. The cumulative time of immobility in the last 4 minutes of a total swimming time of 6 minutes was recorded (the term immobility indicates no movement except for respiration). T-test was used for statistical analysis.

[5] = open-field day 21, 16 mg/kg × 21 i.g.

Structure (SMILES)	Number of crossing ([1]; open-field day 21, 3.33 mg/kg × 21 i.g.)	Number of animals Remaining on the filter paper for 30 seconds ([2]; 3.75 mg/kg × 10 i.g.)	Number of animals Remaining on the filter paper for 30 seconds ([2]; 7.5 mg/kg × 10 i.g.)	Amount of re-uptake ([3]; concentration 0.01 μg/ml)	Inhibitory rate ([3]; concentration 0.01 μg/ml)	Amount of re-uptake ([3]; concentration 0.1 μg/ml)	Inhibitory rate ([3]; concentration 0.1 μg/ml)	Amount of re-uptake ([3]; concentration 1 μg/ml)	Inhibitory rate ([3]; concentration 1 μg/ml)	Amount of re-uptake ([3]; concentration 10 μg/ml)	Inhibitory rate ([3]; concentration 10 μg/ml)	Cumulative immobility within 4 minutes ([4]; multiple dose 18 mg/kg × 10 i.g.)	Cumulative immobility within 6 minutes ([4]; single dose 18 mg/kg × 1 i.g.)	Number of crossing [1, 5]	Number of rearing [1, 5]	Number of animals Remaining on the filter paper for 30 seconds ([2]; 18 mg/kg × 10 i.g.)
CC(C)=CCC[C@](C)(O)[C@H]1CC[C@]2(C)[C@@H]1[C@H](O)C[C@@H]1[C@@]3(C)CC[C@H](O)C(C)(C)[C@@H]3CC[C@]12C [20(S)-protopanaxadiol]	7.00 ± 2.05 times/3 min	8	7	4377.8 ± 479.7 dmp	11.7%	4117.3 ± 532.0 dmp	17.0%	3963.5 ± 459.4 dmp	20.1%	3696.4 ± 392.9 dmp	25.5%	–	–	–	–	–
CNCCC(Oc1ccc(C(F)(F)F)cc1)c1ccccc1 (stereo not shown) [Fluoxetine, reference compound]	–	–	–	–	–	–	–	–	–	–	–	81.50 ± 36.77 s	86.20 ± 32.56 s	11.20 ± 3.08 times/3 min	49.80 ± 20.31 times/3 min	3**
